From patent publication US8367317B2, “Variants of hepatitis B virus with resistance to anti-viral nucleoside agents and applications thereof” (Melbourne Health; St. Vincent's Hospital Melbourne; Austin …, priority 2005, dated 2013)
Where a name gives a salt, the structure may show the parent alone.

Assays:
[1] = tested on: WT HBV (genotype D isolate, precore G1896A background); assay: Antiviral testing in HepG2 cells transduced with recombinant HBV/baculovirus, wild type; type: cell-based, hepatitis B virus; conditions: none (WT) polymerase; area under dose-response curve; values set to 1.0 (relative to WT)
Protocol: (§1) The sensitivity/resistance profile of HBV mutants to adefovir, tenofovir and other antiviral agents was examined in vitro using recombinant HBV/baculovirus. The procedure for analysing the resistance profile is outlined in the following Examples 7-14.
(§2) Sf21 insect cells were maintained in supplemented Grace's insect medium further supplemented with 10% v/v heat-inactivated fetal bovine serum (Gibco BRL, Gaithersburg, Md.) in humidified incubator at 28 C with CO2. HepG2 cells were maintained in minimal essential medium supplemented with 10% v/v heat-inactivated fetal bovine serum (MEM-FBS). HepG2 cells were grown in humidified 37° C. incubators at 5% v/v CO2.
(§3) The recombinant HBV/baculovirus system used for antiviral testing has been previously described (Delaney et al., Antimicrob Agents Chernother 45(6): 1705-[…], 2001). In brief, the recombinant transfer vector was created by excising a fragment containing the 1.3× HBV genome construct and cloning it into the multiple cloning region of a baculovirus vector pBlueBac4.5 (Invitrogen, Carlsbad, Calif.). Point mutations were created by site directed mutagenesis using the commercial kits according to the manufacturers specifications (QuikChange, Stratagene). The nucleotide sequence of the plasmid and the point mutations generated by site directed mutagenesis were confirmed by sequencing using the ABI Prism Big Dye Terminator Cycle Sequencing Ready Reaction Kit according to the manufacturer's specifications (Perkin Elmer, Cetus Norwalk, Conn.). The panel of HBV mutants was generated from a wild type (WT) genotype D HBV isolate by site-directed mutagenesis. Mutants encoded either WT HBV polymerase or polymerase with the amino acid substitutions listed in Table 8 in an HBeAg negative (precore [PC] G1896A mutant) background. Other HBV mutants can be made and tested for antiviral sensitivity in a similar manner.
(§4) Purified recombinant transfer vector and linear AcMNPV baculovirus DNA were co-transfected into Sf21 cells using the BacNBlue transfection kit from Invitrogen (Carlsbad, Calif.); recombinant viruses were isolated by plaque assay according to the manufacturer's instructions. A series of recombinant viruses were amplified from isolated plaques by infecting 100-mm dishes of Sf21 cells. Viral DNA was extracted from amplified viruses using standard procedures. Purified viral DNA was digested with restriction enzymes and then fractionated by electrophoresis in a 1% […] agarose gel. Southern blotting was performed to determine which virus isolates contained the intact 1.3 HBV construct. A Boehringer Mannheim Random Prime DNA Labeling kit (Indianapolis, Ind.) was used to generate [P^32]-radiolabeled probes. A full-length double-stranded HBV genome was used as a template for all radiolabeled probes. Viral DNA sequence was confirmed by PCR amplification and sequencing of the polymerase catalytic region.
(§5) Baculoviruses were amplified by infecting suspension cultures of Sf21 cells in log phase at a multiplicity of infection (moi) of 0.5 pfu/cell. […] Virions were concentrated from infected Sf21 medium by centrifugation at 80,000×g and purified through a 20-60% w/v sucrose gradient. Purified virus was titrated in quadruplicate in Sf21 cells by end-point dilution. An aliquot of each high titer stock was used for DNA extraction. The polymerase gene was amplified and sequenced to confirm the presence of the site-directed mutagenesis.
(§6) HepG2 cells were seeded at approximately 20-40% confluency and then were grown for 16-24 hours before infection. On the day of infection, triplicate plates of cells were trypsinized, and viable cell number was determined with a hemocytometer using Trypan blue exclusion. Average cell counts were calculated and used to determine the volume of high-titer viral stock necessary to infect cells at the indicated moi. HepG2 cells were washed one time with serum-free MEM to remove traces of serum. […]

[2] = tested on: HBV mutant L180M double (rt L180M, M204V); assay: Antiviral testing in HepG2 cells transduced with recombinant HBV/baculovirus, L180M double mutant; type: cell-based, hepatitis B virus; conditions: area under dose-response curve, value relative to WT = 1.0
Protocol: as §1, §2, §3, §4, §5, §6

[3] = tested on: HBV mutant L180M quad (rt L180M, T184G, S202I, M204V); assay: Antiviral testing in HepG2 cells transduced with recombinant HBV/baculovirus, L180M quad mutant; type: cell-based, hepatitis B virus; conditions: area under dose-response curve, value relative to WT = 1.0
Protocol: as §1, §2, §3, §4, §5, §6

[4] = tested on: HBV mutant V173L triple (rt V173L, L180M, M204V); assay: Antiviral testing in HepG2 cells transduced with recombinant HBV/baculovirus, V173L triple mutant; type: cell-based, hepatitis B virus; conditions: area under dose-response curve, value relative to WT = 1.0
Protocol: as §1, §2, §3, §4, §5, §6

HBV = conditions: 30 mg daily dose, over 12 weeks, phase II studies; cited from earlier work

| SMILES | AUC [1] | AUC [2] | AUC [3] | AUC [4] | mean decrease in viremia (HBV) [log10] |
| --- | --- | --- | --- | --- | --- |
| Cc1cn([C@@H]2C[C@@H](O)[C@H](CO)O2)c(=O)[nH]c1=O [L-dT] | 1.0 | 13.7 | 21.1 | 12.7 | – |
| C=C1[C@H](CO)[C@@H](O)C[C@@H]1n1cnc2c(=O)[nH]c(N)nc21 [ETV, entecavir] | 1.0 | 215.9 | 242.7 | 47.5 | – |
| CC(C)OC(=O)OCOP(=O)(CO[C@H](C)Cn1cnc2c(N)ncnc21)OCOC(=O)OC(C)C [TFV, tenofovir disoproxil fumarate] | 1.0 | 2.1 | 4.2 | 2.3 | – |
| Nc1nc(=O)n([C@@H]2CS[C@H](CO)O2)cc1F [FTC, (−)-β-L-2′-3′-dideoxy-5-fluoro-3′-thiacydidine] | 1.0 | 761.4 | 464.4 | 1200.0 | – |
| CC(C)(C)C(=O)OCOP(=O)(COCCn1cnc2c(N)ncnc21)OCOC(=O)C(C)(C)C [ADV, adefovir dipivoxil] | 1.0 | 1.7 | 1.3 | 0.4 | 4 |
| Nc1ccn([C@@H]2CS[C@H](CO)O2)c(=O)n1 [LMV, (−)-β-2′-deoxy-3′-thiacytidine] | 1.0 | 363.1 | 603.4 | 625.3 | – |
